From ChEMBL document CHEMBL1201862, “PubChem BioAssay data set” (2004) come the findings set out here.

The source made the active and inactive calls. Where only a bound is given, the exact number is not on record here.

One assay deals with Cytochrome P450 2C9 (Homo sapiens, UniProt P11712).
Assay [1] in a line: NIH3T3 cell viability loss – ATP luminescence, mouse fibroblasts, counter-screen, dose response (AID 2010).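 Also: cells exposed to compound for about 90 hours before reading.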 In kind it is functional, cell-based.
Assay [2] is described as follows: Trypanosoma cruzi growth suppression in host cells – NIH3T3 host cells, beta-gal luminescence, confirmation (AID 2044).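 Also: intracellular parasites grown in NIH/3T3 mouse fibroblasts as host cells; luminescent beta-galactosidase reporter signal from transgenic T. cruzi replicating inside host cells; inhibitors lower the luminescence signal.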 In kind it is functional, cell-based.
The target in another assay is T1, Cytochrome P450 1A2 (Homo sapiens, UniProt P05177).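 Also: PubChem cytochrome P450 panel assay, CYP1A2 panel member.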
T1 sequence (P05177 whole entry): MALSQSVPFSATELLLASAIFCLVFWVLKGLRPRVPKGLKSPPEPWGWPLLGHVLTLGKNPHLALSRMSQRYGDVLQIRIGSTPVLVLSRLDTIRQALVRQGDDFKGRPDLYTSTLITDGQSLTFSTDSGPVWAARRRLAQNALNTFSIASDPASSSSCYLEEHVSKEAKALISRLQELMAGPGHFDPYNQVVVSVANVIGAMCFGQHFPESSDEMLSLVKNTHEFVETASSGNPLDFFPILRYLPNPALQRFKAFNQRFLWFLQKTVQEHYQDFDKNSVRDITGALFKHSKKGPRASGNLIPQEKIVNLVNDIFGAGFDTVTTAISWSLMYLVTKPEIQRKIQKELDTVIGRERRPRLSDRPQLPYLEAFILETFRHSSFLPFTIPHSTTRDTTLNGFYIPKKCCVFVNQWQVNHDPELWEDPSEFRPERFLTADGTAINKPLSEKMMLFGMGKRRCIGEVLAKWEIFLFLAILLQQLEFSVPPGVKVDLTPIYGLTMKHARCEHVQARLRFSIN

For another assay, the target named is Cytochrome P450 3A4 (Homo sapiens, UniProt P08684).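 Also: CYP3A4 tested as one member of a cytochrome P450 panel screen.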
Cytochrome P450 3A4, sequence (P08684 whole entry): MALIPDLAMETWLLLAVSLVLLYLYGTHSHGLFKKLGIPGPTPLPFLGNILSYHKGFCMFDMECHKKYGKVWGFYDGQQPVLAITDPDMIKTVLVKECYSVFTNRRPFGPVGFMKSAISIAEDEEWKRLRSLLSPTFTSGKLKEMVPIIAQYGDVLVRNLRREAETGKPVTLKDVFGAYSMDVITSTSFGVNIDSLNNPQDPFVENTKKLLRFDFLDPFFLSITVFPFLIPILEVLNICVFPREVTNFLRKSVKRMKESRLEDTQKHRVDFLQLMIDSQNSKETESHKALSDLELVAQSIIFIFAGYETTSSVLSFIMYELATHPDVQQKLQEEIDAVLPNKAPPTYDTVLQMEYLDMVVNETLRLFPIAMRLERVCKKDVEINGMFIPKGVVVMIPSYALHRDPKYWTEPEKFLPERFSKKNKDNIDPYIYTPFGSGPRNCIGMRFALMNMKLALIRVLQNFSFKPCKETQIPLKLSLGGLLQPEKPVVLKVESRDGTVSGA
Assay [3] addresses T2, Corticotropin-releasing factor receptor 2/Corticotropin-releasing factor-binding protein (Homo sapiens, UniProt P24387+Q13324).
T2 sequence (Q13324 whole entry): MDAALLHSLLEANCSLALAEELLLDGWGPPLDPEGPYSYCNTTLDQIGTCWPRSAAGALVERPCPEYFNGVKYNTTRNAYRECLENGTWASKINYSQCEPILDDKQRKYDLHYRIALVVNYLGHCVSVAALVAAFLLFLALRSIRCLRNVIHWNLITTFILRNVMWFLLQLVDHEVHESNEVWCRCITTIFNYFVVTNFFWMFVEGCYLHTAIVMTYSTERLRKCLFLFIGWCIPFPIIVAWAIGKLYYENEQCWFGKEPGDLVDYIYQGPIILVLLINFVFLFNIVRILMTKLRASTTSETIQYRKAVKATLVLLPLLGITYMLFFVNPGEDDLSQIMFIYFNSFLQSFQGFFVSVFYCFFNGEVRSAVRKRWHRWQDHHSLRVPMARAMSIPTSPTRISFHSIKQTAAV
T2 sequence (P24387 whole entry): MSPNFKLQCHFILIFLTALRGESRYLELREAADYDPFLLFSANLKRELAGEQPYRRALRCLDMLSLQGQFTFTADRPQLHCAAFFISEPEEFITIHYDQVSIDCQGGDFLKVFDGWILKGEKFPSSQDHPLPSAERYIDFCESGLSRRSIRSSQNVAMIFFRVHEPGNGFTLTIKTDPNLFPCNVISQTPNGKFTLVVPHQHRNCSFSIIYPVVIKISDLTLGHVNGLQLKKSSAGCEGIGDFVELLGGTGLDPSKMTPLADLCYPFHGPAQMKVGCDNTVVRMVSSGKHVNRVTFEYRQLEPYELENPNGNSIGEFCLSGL
Put plainly: activators of CRF receptor 2 with binding protein – uHTS hits, confirmation (AID 602473). Type of assay: functional. The settings on record: read-out: EC50_Mean.

Assay [4] can be described thus: Luminescence Cell-Based Dose Response HTS to Identify Activators of Luciferase Translation or Activity in H4 […] Cells. [Related pubchem assays: 1829 (Project Summary), 1814 (Primary HTS)]. In kind it is functional.
In the next assay the test system is H4. Briefly: Luminescence Cell-Based Dose Response HTS to Identify Activators of 5'UTR Stem-Loop Driven Prion Protein mRNA Translation in H4 Neuroglioblastoma Cells. [Related pubchem assays: 1829 (Project Summary), 1814 (Primary HTS)]. Particulars: Homo sapiens. Type of assay: functional.
Another assay can be described thus: cells. In kind it is functional.

Cytochrome P450 2C9, sequence (P11712 whole entry): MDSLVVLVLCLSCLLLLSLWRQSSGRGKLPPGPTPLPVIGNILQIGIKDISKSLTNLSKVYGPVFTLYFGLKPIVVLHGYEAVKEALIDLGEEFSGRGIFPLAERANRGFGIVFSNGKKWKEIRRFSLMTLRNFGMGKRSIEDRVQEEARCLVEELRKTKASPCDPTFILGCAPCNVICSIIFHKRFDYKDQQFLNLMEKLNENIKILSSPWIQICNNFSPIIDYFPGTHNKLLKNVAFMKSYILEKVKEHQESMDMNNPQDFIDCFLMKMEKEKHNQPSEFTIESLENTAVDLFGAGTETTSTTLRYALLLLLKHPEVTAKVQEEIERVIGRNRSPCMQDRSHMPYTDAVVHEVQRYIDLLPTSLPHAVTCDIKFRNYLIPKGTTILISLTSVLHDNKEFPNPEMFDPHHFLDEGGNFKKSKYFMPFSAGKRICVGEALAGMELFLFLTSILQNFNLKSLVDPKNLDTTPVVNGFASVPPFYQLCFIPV

As for `CC(C)=CC(=O)OCC(=O)Nc1ncc(Cl)c(C)c1Cl`, on Cytochrome P450 2C9, the half-maximal activity concentration (AC50) (in general, the midpoint of the concentration-response curve, whichever way the signal moves) was 0.0631 µM (inconclusive).
Same read-out and setting: to `O=C1CCCN1CC(CN1CCOCC1)Sc1nnnn1-c1ccccc1` (configuration not stated) belongs 6.31 µM (inconclusive).
Consider `CCOC(=O)c1c(NC(=O)Cn2cnc([N+](=O)[O-])n2)sc(C)c1C`, for which the EC50 in assay [1] is > 30 µM (not active); in [2], 0.191 µM (active).
Take `Cn1c(=O)c(-c2cc(F)cc(F)c2)nc2cnc(N3CCOCC3)nc21`: the concentration at half-maximal activity (AC50) at Cytochrome P450 1A2 is 5.01 µM (inconclusive).
As for `O=c1c2ccccc2nc(SCc2ccccc2Cl)n1Cc1ccccc1`, the half-maximal activity concentration (AC50) on Cytochrome P450 3A4 was 15.8 µM (inconclusive).
On the same count and under the same terms, to `c1nc(NCCN2CCOCC2)c2cc(-c3ccoc3)ccc2n1` belongs 15.8 µM (inconclusive).
Turning to `CCCCCCc1cc2cc(C(=O)Nc3ccccc3OC)c(=O)oc2cc1O`, the EC50 in [3] is 1.97 µM (active).
Regarding `CO[C@@H]1COC(=O)C/C=C\[C@H](C)COC(=O)[C@H](Cc2ccccc2)NC(=O)C/C=C\[C@H]1C`, the AC50 at Cytochrome P450 3A4 was 6.31 µM (inconclusive).
Same read-out and setting: for `CC1CCN(c2cc(N3CCC(C)CC3)c([N+](=O)[O-])cc2/C=C(\C#N)c2nn(-c3ccccc3)c(N)c2C#N)CC1` the value was 3.98 µM (inconclusive).
Consider `COc1ccc(-n2c(=O)cnc3cnc(N4CCNCC4)nc32)cc1`, for which, on Cytochrome P450 2C9, the AC50 is 39.8 µM (inconclusive).
Still for that read-out and setting: for `COC(=O)[C@@H]1CC[C@H](C)[C@@H](c2ccc(C)cc2)N1C(=O)c1ccc(/C=N\O[C@@H]2O[C@H](COC(C)=O)[C@H](OC(C)=O)[C@H](OC(C)=O)[C@H]2OC(C)=O)cc1` the value was 1.58 µM (inconclusive).
On to `Cc1cccc(-c2nsc(SCC(=O)N3CCCC3)n2)c1`, for which the EC50 was 0.104 µM (active) in [4] and 0.217 µM (active) in the assay with H4.
In the case of `Cc1ccc(C(C)C)cc1OCC(=O)Nc1ccc(N2CCCCC2)cc1`, the EC50 in assay [1] is > 16 µM (not active); in assay [2], 2.03 µM (active).
As for `COCCn1c(=O)c(-c2ccccc2)nc2cnc(Oc3cccc(Cl)c3)nc21`, the AC50 on Cytochrome P450 3A4 was 20 µM (inconclusive).
Turning to `COc1ccc(-n2c(=O)c(-c3cccs3)nc3cnc(Oc4ccccc4)nc32)cc1`, the concentration at half-maximal activity (AC50) on Cytochrome P450 2C9 was 12.6 µM (inconclusive).
As for `CN1Cc2cccc3c2C(Cc2ccccc2S3)C1` (configuration not stated), the EC50 in [1] was > 30 µM (not active); in assay [2], 0.451 µM (active).
For `COC(=O)[C@@H]1CC[C@H](C)[C@@H](c2ccc(C)cc2)N1C(=O)c1ccc(/C=N\O[C@@H](C)CN2CCCCc3nc(C)c(C)cc32)cc1`, the AC50 on Cytochrome P450 2C9 and on Cytochrome P450 3A4 was 3.16 µM (inconclusive) each time.
As for `CC(=O)c1sc2nc(-c3ccccc3)cc(C)c2c1N`, the EC50 in assay [1] was > 60 µM (not active); in assay [2], 0.638 µM (active).
Take `CSc1cccc(CN2CCCC(CO)(Cc3cccc(Cl)c3)C2)c1` (configuration not stated): the EC50 is > 30 µM (not active) in assay [1] and 0.514 µM (active) in assay [2].
As to `O=C(Nc1ccc(OC(=O)c2cccnc2)cc1)c1cccnc1`, the half-maximal activity concentration (AC50) at Cytochrome P450 3A4 was 12.6 µM (inconclusive).
The same measure, in the same setting: to `Cc1cc(C)n(-c2cc(N3CCN(C(=O)c4ccc(C(C)(C)C)cc4)CC3)ccc2[N+](=O)[O-])n1` belongs 35.5 µM (inconclusive).
For the molecule `Cn1c(=O)c(Oc2ccc(F)cc2)c(O)c2ccccc21`, the IC50 (commonly the concentration that gives 50% inhibition) in “cells” is 1.87 µM (active).
For `CS(=O)(=O)N(CC(=O)Nc1cccc(F)c1)c1cccc([N+](=O)[O-])c1`, the concentration at half-maximal activity (AC50) at Cytochrome P450 3A4 was 17.8 µM (inconclusive).
With `CCOc1cc(CNCCc2ccc(S(N)(=O)=O)cc2)cc(Cl)c1OCc1ccccc1`, the EC50 in assay [1] was > 60 µM (not active); in assay [2], 0.373 µM (active).
For `COc1cccc(NC(=S)N(Cc2ccc(C)cc2)Cc2ccccn2)c1` the same measures were > 60 µM (not active) and 0.764 µM (active).
`O=C(Nc1ccccc1)[C@@]12C[C@@H]1/C(=N/O)c1ccccc1O2`: the concentration at half-maximal activity (AC50) at Cytochrome P450 2C9 was 20 µM (inconclusive).
The same measure, in the same setting: for `O=S(=O)(c1ccccc1)N1CCC[C@@]2(CCN(Cc3nccs3)C2)C1` the value was 31.6 µM (inconclusive).
`CN1CCN(CC(O)c2ccccc2)CC1` (configuration not stated): the figures for the EC50 in assay [1] and in [2] were 31.2 µM (active) and 0.934 µM (active), respectively.
Consider `CCOC(=O)c1cc(CC)sc1NC(=O)C(c1ccccc1)c1ccccc1`, for which, at Cytochrome P450 3A4, the half-maximal activity concentration (AC50) is 11.2 µM (inconclusive).
With `Cc1ccc(C2=NN(C)c3nc4ccccc4n3C2)cc1`, the IC50 in “cells” is 8.22 µM (active).
As to `COC(=O)C1CC(=O)N(c2ccc(OCc3ccccc3Cl)cc2)C1` (configuration not stated), in “cells”, the IC50 was 2.2 µM (active).
With `CN1CCC(NC(=O)Nc2ccc(Br)cc2)CC1`, the EC50 is > 60 µM (not active) in assay [1] and 0.188 µM (active) in assay [2].
Regarding `CC/C=C\CC[C@H](OC(=O)c1ccc(Br)cc1)C1=CCCCC1=O`, the AC50 at Cytochrome P450 2C9 is 3.16 µM (inconclusive); on Cytochrome P450 3A4, 3.98 µM (inconclusive).
On to `Cc1ccc(C2=Nc3ccccc3S[C@@H](c3cccc([N+](=O)[O-])c3)C2)cc1`, for which the AC50 at Cytochrome P450 1A2 was 2 µM (inconclusive).
Turning to `COc1cc(-c2nc(-c3cc([N+](=O)[O-])ccc3C)c(-c3ccccc3)[nH]2)cc(OC)c1OC`, the figures for the EC50 in assay [1] and in assay [2] were > 60 µM (not active) and 0.561 µM (active), respectively.
Take `CCN1CCc2c(sc(NC(=O)c3ccc(S(=O)(=O)N(CC)c4ccccc4)cc3)c2C(N)=O)C1`: the EC50 in [3] is 4.85 µM (active).
As for `C[C@@H]1C[C@H]2[C@H]3C[C@@H](F)C4=CC(=O)C=C[C@]4(C)[C@@]3(Cl)[C@@H](O)C[C@@]2(C)[C@@H]1C(=O)COC(=O)C(C)(C)C`, the AC50 on Cytochrome P450 3A4 is 0.398 µM (inconclusive).
The same measure, in the same setting: for `O=C(N/N=C1/C[C@@H](O)[C@@H](O)[C@@H]2[C@H]3C(=O)N(c4ccc(F)cc4F)C(=O)[C@@H]3CC[C@@H]12)OCc1ccccc1` the value was 3.98 µM (inconclusive); for `C=CCCCCCCCCC(=O)Nc1cnc(O)nc1O`, 10 µM (inconclusive).
Regarding `Cc1c(Cl)cccc1NC(=O)C(=O)NNC(=O)c1ccccc1F`, the IC50 in the assay “cells” was 15 µM (active).
Turning to `Cc1nc2cnc(N(C)C)nc2n(C)c1=O`, the AC50 at Cytochrome P450 3A4 was 15.8 µM (inconclusive).
`O=C(NC1CC1)c1cccc2c1C(=O)c1ccc(N3CCC(Cc4ccccc4)CC3)cc1S2(=O)=O`: in assay [3], the EC50 was 7.05 µM (active).
Consider `Cc1noc(C)c1C(=O)N1CCC2(CCN(C(=O)NC(C)C)CC2)CC1`, for which, at Cytochrome P450 1A2, the AC50 is 5.01 µM (inconclusive).
`Cc1ccc(CSc2nnc([C@@H]3CCCN3)o2)cc1`: the figures for the half-maximal activity concentration (AC50) on Cytochrome P450 2C9 and on Cytochrome P450 3A4 were 10 µM (inconclusive) and 3.55 µM (inconclusive), respectively.
Take `Cc1ccc(NC(=O)CO/N=C/c2ccc(N(C)C)cc2)cc1`: the half-inhibitory concentration (IC50) in “cells” is > 50 µM (active).
On to `COc1ccc2nc(SCC(=O)Nc3ccc4c(c3)OCCO4)[nH]c2c1`, for which, on Cytochrome P450 3A4, the half-maximal activity concentration (AC50) was 6.31 µM (inconclusive).
For `C=C1[C@@H](O)C2C=CC[C@H](C)C(=O)[C@@](C)(O)C=C[C@@H](OC(C)=O)[C@@]23C(=O)N[C@H](Cc2ccccc2)[C@@H]3[C@@H]1C` (some centres not stated), the AC50 at Cytochrome P450 2C9 is 31.6 µM (inconclusive); at Cytochrome P450 3A4 it was 15.8 µM (inconclusive).
Take `O=C(COc1ccc2ccccc2c1)N/N=C/c1ccccn1`: in “cells”, the half-inhibitory concentration (IC50) is > 50 µM (active).
As to `Cc1ccc(CN2CCN(/N=C/c3ccc(Cl)c([N+](=O)[O-])c3)CC2)cc1`, the EC50 in assay [1] was > 60 µM (not active); in assay [2], 1.31 µM (active).
Regarding `COc1ccccc1CNc1ncnc2ccc(-c3ccc(N(C)C)cc3)cc12`, on Cytochrome P450 2C9, the AC50 was 0.631 µM (inconclusive).
As for `Cc1nnc2ccc(-c3cccc(C(F)(F)F)c3)nn12` [CI-218872], at Cytochrome P450 3A4, the AC50 was 31.6 µM (inconclusive).
